pIC50: −log10 of the molar value. Where two headings read alike, the source gives them in different places.
Experiments:
[1] = system: MDA-MB-231 cells; assay: Inhibition of in vitro proliferation of tumor cells by compounds (CTG, 6 days); assay type: cell-based; conditions: Homo sapiens, MDA-MB-231, 144 h, Table 3, Test Example 2.3; small molecule fragments; 6 days of culture, CTG; read-out: MDA-MB-231 IC50
Description: To test the inhibitory activity of the pharmaceutical compounds on the in vitro proliferation of NCI-N87, JIMT-1 and MBA-MB-231 tumor cells. The cells were treated with compounds at different concentrations in vitro, and after 6 days of culture, the proliferation of cells was detected using CTG (CellTiter-Glo® Luminescent Cell Viability Assay, Promega, Cat. No. G7558) reagents, and the in vitro activity of the compounds was evaluated according to the IC50 value. • 1. Culturing of cells: NCI-N87/JIMT-1/MBA-MB-231 cells were cultured in RPMI-1640 medium containing 10% FBS. • 2. Preparation of cells: NCI-N87/JIMT-1/MBA-MB-231 cells in logarithmic phase were taken, washed with PBS once, and digested with 2-3 mL of trypsin for 2-3 min. After the cells were digested completely, 10-15 mL of cell culture was added to elute the digested cells. The eluate was centrifuged at 1000 rpm for 5 min, and the supernatant was discarded. The resulting cells were resuspended in 10-20 mL of cell culture to obtain a single cell suspension. • 3. Cell plating: the NCI-N87/JIMT-1/MBA-MB-231 single cell suspension was mixed well and adjusted to a viable cell density of 6×10^4 cells/mL with cell culture. The cell suspension with the adjusted density was mixed well and added to a 96-well cell culture plate at 50 μL/well. The culture plate was incubated in an incubator for 18 h (37° C., 5% CO2). • 4. Preparation of compounds: the compounds were dissolved in DMSO to obtain stock solutions at an initial concentration of 10 mM. There were 8 concentrations in total for the small molecule compounds: 300 nM, 100 nM, 30 nM, 10 nM, 3 nM, 1 nM, 0.3 nM, and 0.1 nM. • 5. Sample adding: the prepared samples to be detected at different concentrations were added to the culture plate, and two duplicate wells were set for each sample. The culture plate was incubated in an incubator for 6 days (37° C., 5% CO2). • 6. Color developing: the 96-well cell culture plate was taken out, added with the CTG reagent at 50 μL/well, and incubated at room temperature for 10 min. • 7. Plate reading: the 96-well cell culture plate was taken out, placed in a microplate reader, and measured for the chemiluminescence using the microplate reader. Data analysis: data were processed and analyzed using Microsoft Excel and Graphpad Prism 5.

[2] = system: NCI-N87 cells; assay: as above; assay type: cell-based; conditions: small molecule fragments, 6 days of culture, CTG, read-out: NCI-N87 IC50
Description: (§1) To test the inhibitory activity of the pharmaceutical compounds on the in vitro proliferation of NCI-N87, JIMT-1 and MBA-MB-231 tumor cells. The cells were treated with the compounds at different concentrations in vitro, and after 6 days of culture, the proliferation of cells was detected using the CTG (CellTiter-Glo® Luminescent Cell Viability Assay, Promega, Cat. No. G7558) reagent, and the in vitro activity of the compounds was evaluated according to the IC50 value.
(§2) In the following, the test for the inhibition of the in vitro proliferation of NCI-N87 cells was taken as an example to illustrate the method of the present application for testing the inhibitory activity of the compounds of the present application on the in vitro proliferation of tumor cells. The method was also applicable to, but not limited to, the test for the inhibitory activity on the in vitro proliferation of other tumor cells. • 1. Culturing of cells: NCI-N87 cells were cultured in RPMI-1640 medium containing 10% FBS. • 2. Preparation of cells: NCI-N87 cells in logarithmic phase were taken, washed with PBS once, and digested with 2-3 mL of trypsin for 2-3 min. After the cells were digested completely, 10-15 mL of cell culture was added to elute the digested cells. The eluate was centrifuged at 1000 rpm for 5 min, and the supernatant was discarded. The resulting cells were resuspended in 10-20 mL of cell culture to obtain a single cell suspension. • 3. Cell plating: the NCI-N87 single cell suspension was mixed well and adjusted to a viable cell density of 6×10^4 cells/mL with cell culture. The cell suspension with the adjusted density was mixed well and added to a 96-well cell culture plate at 50 μL/well. The culture plate was incubated in an incubator for 18 h (37° C., 5% CO2). • 4. Preparation of compounds: the compounds were dissolved in DMSO to obtain stock solutions at an initial concentration of 10 mM. There were 8 concentrations in total for the small molecule compounds: 300 nM, 100 nM, 30 nM, 10 nM, 3 nM, 1 nM, 0.3 nM, and 0.1 nM. • 5. Sample adding: the prepared samples to be detected at different concentrations were added to the culture plate, and two duplicate wells were set for each sample. The culture plate was incubated in an incubator for 6 days (37° C., 5% CO2). • 6. Color developing: the 96-well cell culture plate was taken out, added with the CTG reagent at 50 μL/well, and incubated at room temperature for 10 min. • 7. Plate reading: the 96-well cell culture plate was taken out, placed in a microplate reader, and measured for the chemiluminescence using the microplate reader. Data Analysis
(§3) Data were processed and analyzed using Microsoft Excel and Graphpad Prism 5.
(§4) To test the inhibitory activity of the pharmaceutical compounds on the in vitro proliferation of NCI-N87, JIMT-1 and MBA-MB-231 tumor cells. The cells were treated with compounds at different concentrations in vitro, and after 6 days of culture, the proliferation of cells was detected using CTG (CellTiter-Glo® Luminescent Cell Viability Assay, Promega, Cat. No. G7558) reagents, and the in vitro activity of the compounds was evaluated according to the IC50 value. • 1. Culturing of cells: NCI-N87/JIMT-1/MBA-MB-231 cells were cultured in RPMI-1640 medium containing 10% FBS. • 2. Preparation of cells: NCI-N87/JIMT-1/MBA-MB-231 cells in logarithmic phase were taken, washed with PBS once, and digested with 2-3 mL of trypsin for 2-3 min. After the cells were digested completely, 10-15 mL of cell culture was added to elute the digested cells. The eluate was centrifuged at 1000 rpm for 5 min, and the supernatant was discarded. The resulting cells were resuspended in 10-20 mL of cell culture to obtain a single cell suspension. • 3. Cell plating: the NCI-N87/JIMT-1/MBA-MB-231 single cell suspension was mixed well and adjusted to a viable cell density of 6×10^4 cells/mL with cell culture. […]

[3] = system: Colo205 cells; assay: as above; assay type: cell-based; conditions: Homo sapiens, COLO 205, 144 h, Table 4, Test Example 2.4, small molecule fragments, 6 days of culture
Description: To test the inhibitory activity of the pharmaceutical compounds on the in vitro proliferation of NCI-N87 and Colo205 tumor cells. The cells were treated with compounds at different concentrations in vitro, and after 6 days of culture, the proliferation of cells was detected using CTG (CellTiter-Glo® Luminescent Cell Viability Assay, Promega, Cat. No. G7558) reagents, and the in vitro activity of the compounds was evaluated according to the IC50 value. • 1. Culturing of cells: NCI-N87/Colo205 cells were cultured in RPMI-1640 medium containing 10% FBS. • 2. Preparation of cells: NCI-N87/Colo205 cells in logarithmic phase were taken, washed with PBS once, and digested with 2-3 mL of trypsin for 2-3 min. After the cells were digested completely, 10-15 mL of cell culture was added to elute the digested cells. The eluate was centrifuged at 1000 rpm for 5 min, and the supernatant was discarded. […] Sample adding: the prepared samples to be detected at different concentrations were added to the culture plate, and two duplicate wells were set for each sample. […] Plate reading: the 96-well cell culture plate was taken out, placed in a microplate reader, and measured for the chemiluminescence using the microplate reader. Data analysis: data were processed and analyzed using Microsoft Excel and Graphpad Prism 5.

[4] = target: T1, BCRP (Homo sapiens, UniProt Q9UNQ0); conditions: Caco-2
T1 sequence (Q9UNQ0 1-655): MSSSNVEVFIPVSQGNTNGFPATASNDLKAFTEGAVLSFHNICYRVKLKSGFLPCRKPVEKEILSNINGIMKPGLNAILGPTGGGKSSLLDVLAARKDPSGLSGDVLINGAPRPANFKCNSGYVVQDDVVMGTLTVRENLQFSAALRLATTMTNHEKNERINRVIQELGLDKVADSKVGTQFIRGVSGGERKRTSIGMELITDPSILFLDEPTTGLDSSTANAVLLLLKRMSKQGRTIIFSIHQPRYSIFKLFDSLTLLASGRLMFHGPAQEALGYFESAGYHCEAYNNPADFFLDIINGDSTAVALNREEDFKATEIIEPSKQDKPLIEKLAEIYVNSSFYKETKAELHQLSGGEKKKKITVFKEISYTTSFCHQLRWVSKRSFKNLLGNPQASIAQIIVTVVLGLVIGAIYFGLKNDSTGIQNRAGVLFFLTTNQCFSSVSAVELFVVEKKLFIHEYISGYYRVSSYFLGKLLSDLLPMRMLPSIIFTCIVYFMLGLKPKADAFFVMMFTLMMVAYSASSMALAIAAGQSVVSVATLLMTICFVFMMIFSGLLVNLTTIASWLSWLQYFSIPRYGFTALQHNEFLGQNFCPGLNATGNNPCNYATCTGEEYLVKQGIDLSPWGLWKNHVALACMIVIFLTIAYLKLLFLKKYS
Description: (§5) To investigate whether the compounds of the present invention is a substrate for efflux transporters P-gp and BCRP in a Caco-2 cell model, thereby providing preclinical basis for analyzing the drug-drug interaction in pharmacokinetics.
(§6) • 1) Cell culture medium was added to each well of the Transwell. The HTS Transwell plate was incubated under conditions of 37° C. and 5% CO2 for 1 h prior to cell inoculation. • 2) Caco-2 cells were diluted with culture medium and the cell suspension was dispensed into filter wells of the 96-well HTS Transwell plate. […] The cell culture medium was changed periodically. • 3) Monolayer cell resistance was measured using the Millicell Epithelial Volt-Ohm detection system. The resistance of each well was recorded. After all wells were measured, the Transwell plate was put back into the incubator. TEER of each well was calculated according to the formula. The TEER value of each well should be greater than 230 ohm·cm^2. […] Preparation for Transporter Test • 1) The Caco-2 plate was taken out from the incubator. The monolayer cells were washed with pre-heated HBSS twice. The plate was then incubated at 37° C. for 30 min. • 2) Stock solutions of the compounds were prepared in DMSO and diluted with HBSS to obtain working solutions. Digoxin was used as a reference substrate for P-gp and rosuvastatin was used as a reference substrate for BCRP. Propranolol was used as a high permeability marker. • 3) The working solution (without inhibitor) was added to the Transwell insert (apical compartment) to determine the rate of drug transport in the apical to basolateral direction. The transfer buffer was added to the wells in the receiver plate (basolateral compartment). The working solution (without inhibitor) was added to the receiver plate wells (basolateral compartment) to determine the rate of drug transport in the basolateral to apical direction. The Transwell insert (apical compartment) was filled with the transport buffer. PSC833 was added to the apical and basolateral compartments to determine the rate of drug transport in the presence of P-gp inhibitors. • 4) The sample was transferred from the working solution to the quenching solution, and a sample with a time of 0 was prepared. The Transwell plate was incubated under conditions of 37° C. and 5% CO2 for 2 h. • 5) At the end of the transport cycle, the samples were transferred from the apical and basolateral wells into a new 96-well plate. Cold acetonitrile or methanol containing the appropriate internal standard (IS) was added to each well of the plate. The plate was vortexed for 10 min. The samples were centrifuged. The supernatant of an aliquot was mixed with an appropriate amount of ultrapure water (depending on the LC-MS/MS signal response and peak shape) prior to the LC-MS/MS analysis. • 6) The stock solution of lucifer yellow in DMSO was prepared and diluted with HBSS to determine the amount of lucifer yellow leakage after a 2-hour transport period. The lucifer yellow solution was added to the apical compartment. HBSS was added to the basolateral compartment. The plate was incubated at 37° C. for 30 min, and a certain amount of the solution was directly taken from the apical and basolateral wells and transferred to a new 96-well plate. The lucifer yellow fluorescence was measured in a fluorescence plate reader with 485 nm excitation and 530 nm emission (to monitor monolayer integrity).
(§7) Data were calculated using Microsoft Excel. The percentage of the compound remaining at each time point was estimated by determining the peak area ratio from the extracted ion chromatogram.
(§8) For drug transport analysis in the Caco-2 cell model, the apparent permeability coefficient (Papp) can be calculated according to the following formula, in cm/s:
(§9) [formula] • wherein the concentration C is in nM, the volume V is in μL, the time T is in s, and the area S is in cm^2.
(§10) The recovery rate is calculated according to the following formula:

[5] = target: T1, BCRP; assay: in vitro
Description: as §5, §6, §7, §8, §9, §10

[6] = target: T1, BCRP; assay: Study on transporter substrates in Caco-2 cell model; conditions: human, Caco-2
Description: as §5, §6, §7, §8, §9, §10

[7] = system: JIMT-1 cells; assay: Inhibition of in vitro proliferation of tumor cells by compounds (CTG, 6 days); assay type: cell-based; conditions: Table 1, Test Example 2.1, small molecule fragments, 6 days of culture, CTG, read-out: JIMT-1 IC50
Description: as §1, §2, §3, §4

[8] = target: T2, P-gp (Homo sapiens, UniProt P08183); assay: Study on transporter substrates in Caco-2 cell model; assay type: in vitro ADME; conditions: Caco-2
T2 construct: endogenous in cells; host or cells: Caco-2
T2 sequence (P08183 whole entry): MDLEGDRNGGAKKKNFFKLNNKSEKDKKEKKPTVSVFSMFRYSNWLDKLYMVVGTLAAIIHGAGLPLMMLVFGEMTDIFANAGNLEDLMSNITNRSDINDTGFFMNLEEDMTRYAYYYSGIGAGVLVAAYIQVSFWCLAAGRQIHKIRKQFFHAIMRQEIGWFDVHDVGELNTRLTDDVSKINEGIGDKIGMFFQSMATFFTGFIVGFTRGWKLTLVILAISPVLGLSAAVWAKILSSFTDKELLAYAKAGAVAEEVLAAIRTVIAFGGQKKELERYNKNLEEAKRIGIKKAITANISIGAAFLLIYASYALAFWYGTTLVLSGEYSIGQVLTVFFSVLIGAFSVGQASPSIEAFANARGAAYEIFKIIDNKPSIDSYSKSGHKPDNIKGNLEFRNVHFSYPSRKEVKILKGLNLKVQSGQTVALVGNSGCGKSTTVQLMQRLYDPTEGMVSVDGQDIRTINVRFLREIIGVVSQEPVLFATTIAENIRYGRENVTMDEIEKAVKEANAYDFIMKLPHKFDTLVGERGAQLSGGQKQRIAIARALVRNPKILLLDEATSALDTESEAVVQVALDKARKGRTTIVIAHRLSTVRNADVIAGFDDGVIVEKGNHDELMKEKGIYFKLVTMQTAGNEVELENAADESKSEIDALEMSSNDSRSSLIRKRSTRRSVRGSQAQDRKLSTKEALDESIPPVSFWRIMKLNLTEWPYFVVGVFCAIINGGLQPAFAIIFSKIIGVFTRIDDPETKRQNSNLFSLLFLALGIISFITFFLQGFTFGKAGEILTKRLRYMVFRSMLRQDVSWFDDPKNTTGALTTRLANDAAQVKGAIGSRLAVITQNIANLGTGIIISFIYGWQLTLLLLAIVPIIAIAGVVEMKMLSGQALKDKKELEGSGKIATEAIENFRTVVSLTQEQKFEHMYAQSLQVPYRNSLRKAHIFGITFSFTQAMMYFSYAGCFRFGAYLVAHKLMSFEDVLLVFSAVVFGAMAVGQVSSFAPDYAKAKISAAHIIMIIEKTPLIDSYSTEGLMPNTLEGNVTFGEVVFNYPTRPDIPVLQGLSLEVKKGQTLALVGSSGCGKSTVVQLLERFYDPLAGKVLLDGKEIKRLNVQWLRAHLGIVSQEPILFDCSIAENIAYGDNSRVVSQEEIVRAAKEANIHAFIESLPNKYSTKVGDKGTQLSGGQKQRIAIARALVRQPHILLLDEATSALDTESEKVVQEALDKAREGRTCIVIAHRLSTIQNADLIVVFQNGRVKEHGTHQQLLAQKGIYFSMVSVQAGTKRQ
Description: The resistance of each well was recorded. […] 2. […] The plate was vortexed for 10 min. The samples were centrifuged. […] HBSS was added to the basolateral compartment. […] 3. Data Analysis
Data were calculated using Microsoft Excel.

Structure (SMILES) | pIC50 [1] | pIC50 ([2]; Homo sapiens, NCI-N87, 144 h, Table 4, Test Example 2.4) | pIC50 [3] | Papp (A-B) (10^−6, cm/s) [4] | Papp (B-A) (10^−6, cm/s) [4] | Papp A→B at 2 h ([5]; Caco-2, Papp (A-B) (10^−6, cm/s)) [×10⁻⁶ cm/s] | Papp B→A at 2 h ([5]; Caco-2, Papp (B-A) (10^−6, cm/s)) [×10⁻⁶ cm/s] | efflux ratio at 2 h ([6]; Caco-2, Efflux ratio, KO143 −) | recovery at 2 h ([6]; Caco-2, Recovery rate (%) AP-BL, KO143 −) [%] | recovery at 2 h ([6]; Caco-2, Recovery rate (%) BL-AP, KO143 −) [%] | recovery at 2 h ([6]; Caco-2, with KO143 (concentration not stated), Recovery rate (%) AP-BL, KO143 +) [%] | recovery at 2 h ([6]; Caco-2, with KO143 (concentration not stated), Recovery rate (%) BL-AP, KO143 +) [%] | pIC50 ([2]; Homo sapiens, NCI-N87, 144 h, Table 1, Test Example 2.1) | pIC50 ([2]; Table 1, Test Example 2.1) | pIC50 ([7]; Homo sapiens, JIMT-1, 144 h) | pIC50 [7] | P-gp substrate [8]
CC[C@@]1(O)C(=O)OCc2c1cc1n(c2=O)Cc2c-1nc1cc(F)c(C)c3c1c2[C@@H](NC(=O)C[C@H](C)O)CC3 [P-III-30, (S)-N-((1S,9S)-9-ethyl-5-fluoro-9-hydroxy-4-methyl-10,13-dioxo-2,3,9,10,13,15-hexahydro-1H,12H-benzo[de]pyrano[3′,4′:6,7]indolizino[1,2-b]quinolin-1-yl)-3-hydroxybutanamide] | 7.55 | 8.52 | 8.05 |  |  |  |  |  |  |  |  |  |  |  |  |  | 
CC[C@@]1(O)C(=O)OCc2c1cc1n(c2=O)Cc2c-1nc1cc(F)c(C)c3c1c2[C@@H](N1CCC(O)C1=O)CC3 (some centres unmarked) [P-I-1] |  |  |  | 0.21 10^−6, cm/s | 4.94 10^−6, cm/s | 0.13 | 4.06 | 32.4 | 80.5 | 76.1 | 81.5 | 80.3 | 7.01 | 7.21 | 7.63 | 7.66 | neither transporter P-gp substrates nor transporter BCRP substrates

From patent US11952384B2, “Anti-tumor compound and preparation method and use thereof” (DUALITY BIOLOGICS (SUZHOU) CO., LTD., priority 2020, dated 2024)
